pIC50: −log10 of the molar value. “Also recorded” adds a separate entry of the source. Where two headings read alike, the source gives them in different places.
Legend:
[1] = test system: PDX organoids MC-PRX-01 and MC-PRX-05; assay: PDX derived organoid culture and cytotoxicity assay (3D cell titer)
[2] = test system: LNCaP parental and LNCaP-AbiRes cells; assay: Cytotoxicity and proliferation assay (Cyquant direct assay), LNCaP parental and AbiRes; assay type: cell-based, human; conditions: for pIC50: LNCaP, single treatment preliminary experiments, concentration used in combination with Abi (FIG. 6B), except PD-0325901, read-out: Concentrations corresponding to IC50 of each drug
Method: (§1) 22Rv1 and LNCaP cells purchased from ATCC were routinely cultured in RPMI1640 medium (Gibco, Grand Island, NY) supplemented with 10% FBS (Atlanta Biologicals, Flowery Branch, GA) and 1% Pen-Strep. […] Abi resistant cells (LNCaP-AbiRes or 22Rv1-AbiRes) were compared with parental cells for viability and gene expression after Abi and other treatments.
(§2) Forty eight hours before abiraterone treatment, cell was seeded in phenol red-free RPMI (Gibco, Grand Island, NY) supplemented with 10% charcoal stripped FBS (Thermo Fisher Scientific, Waltham, MA), and 50 nM pregnenolone was added after 24 hours.

[3] = test system: 11 genes (CCNA2, CCNB1, CCNB2, PRC1, SMC2, DLGAP5, ECT2, FBXO5, CDK1, NCAPG, KIF4A); assay: qRT-PCR of the 11 genes in cell lines and PDX organoids after drug treatment; assay type: cell-based, human; conditions: for expression of the 11 genes (qRT-PCR): 22Rv1 and LNCaP parental/AbiRes cells, organoids MC-PRX-01 and MC-PRX-05, alone or with Abi
Method: Total RNA for qRT-PCR was extracted from tumor organoids or cell lines using Quick-RNA MiniPrep Kit (Zymo Research, Irvine, CA) according to the manufacturer's instructions. qRT-PCR was performed using the Power SYBR® Green RNA-to-CT 1-Step Kit (Life Technologies, Grand Island, NY) and QuantiTect® (QIAGEN, Germantown, MD) or PrimeTime® (IDT, Inc., Coralville, Iowa) pre-designed qPCR primers (IDT Coralville, IA). Gene expression analyses were performed using ΔΔCt method, and β-actin was used as the internal reference. Three independent experiments were performed. Primer sequences are in Table 1.

[4] = test system: 11 genes in MC-PRX-01 and MC-PRX-06 PDX tumors; assay: qRT-PCR of the 11 genes in post treatment PDX tumors; assay type: in vivo, mice; conditions: MC-PRX-01 and MC-PRX-06 tumors harvested after treatment
[5] = test system: MC-PRX-01 PDX tumor; assay: MC-PRX-01 PDX model treated with abiraterone ± palbociclib/PHA-793887, 35 days; assay type: in vivo, mice
Method: All patient specimens were collected as part of the PROMOTE study as described elsewhere (see, for example, Champoux. Annu. Rev. Biochem., 70, 369-413 (2001); and Kellner et al., Lancet Oncol., 3, 235-243 (2002)). Briefly, pathology confirmed metastatic tumor biopsy tissues of mCRPC was renal capsule xenografted and 25 mg testosterone pellet was subcutaneously implanted into 6-8 weeks old male CB17 NOD-SCID mice (Jackson laboratories, Bar Harbor, Maine; Charles River Laboratories, Raleigh, North Carolina) and observed for at least 6 months or till the tumor reached 1.0-1.5 cm at maximal length, when sub-xenografts were expanded by subcutaneous implantation with harvested PDX tumor mixed with Matrigel (Corning, Corning, New York) with no exogenous testosterone supplied. Early generation PDX tumors were collected for cryo-storage and next-generation sequencing. Pathology confirmed PDX model generated from AA/P non-responder bone metastatic tumor biopsy tissues were employed to test the in vivo tumor response to abiraterone+Mito/Dox/Palb/PHA. After PDX tumor reached approximately 100 mm3, mice were randomized to 6 groups. […] Body weight and tumor volumes (width^2×length/2) were measured two to three times per week with a digital caliper, and the average tumor volumes were determined. At the end of the treatment period, mice were euthanized and the tumors were removed, dissected and frozen at −80° C. for further analysis.

[6] = test system: 22Rv1 parental and 22Rv1-AbiRes cells; assay: Cytotoxicity and proliferation assay (Cyquant direct assay), 22Rv1 parental and AbiRes; assay type: cell-based, human; conditions: single treatment preliminary experiments, concentration used in combination with Abi (FIG. 6A), read-out: Concentrations corresponding to IC50 of each drug
Method: as §1, §2

[7] = test system: metastatic / castration-resistant prostate cancer; conditions: patients, literature; cited from earlier work

## C[C@]12CC[C@H](O)CC1=CC[C@@H]1[C@@H]2CC[C@]2(C)C(c3cccnc3)=CC[C@@H]12 [abiraterone]
[1]; abiraterone alone at the highest tested concentration, MC-PRX-01 and MC-PRX-05 organoids
  inhibition of organoid growth: less than 10%

## O=C1c2c(O)ccc(O)c2C(=O)c2c(NCCNCCO)ccc(NCCNCCO)c21 [mitoxantrone]
[2]; Homo sapiens
  pIC50: 8.00
[3]
  expression of the 11 genes (qRT-PCR): most consistently suppressed the expression of the 11 genes; also recorded: more significant effects on the 11 gene suppression
[3]; LNCaP AbiRes vs parental
  suppression of the 11 genes in LNCaP Abi-resistant cells compared to parental cells: better suppression effects
[4]
  expression of the 11 genes in PDX tumors after treatment (qRT-PCR): significantly downregulated
[1]; range of doses tested, FIG. 6
  potency relative to the other identified drugs in cytotoxicity experiments: superior to others; also recorded: most potent

## CC(C)CC(=O)Nc1n[nH]c2c1CN(C(=O)C1CCN(C)CC1)C2(C)C [PHA-793887]
[2]
  pIC50: 7.00
[3]
  expression of the 11 genes (qRT-PCR): less consistency in the suppression
[5]; 35 days
  tumor growth: inhibited tumor growth
[5]; 35 days, tested dosage
  tumor growth inhibition as single treatment: did not exhibit statistically significant inhibition
[5]; combination with Abi
  sensitization of the tumor to Abi treatment: sensitize the tumor to Abi treatment
[6]
  pIC50: 7.00

## O=C(NOC[C@H](O)CO)c1ccc(F)c(F)c1Nc1ccc(I)cc1F [PD-0325901, mirdametinib]
[2]; LNCaP harbors a Q56P mutation
  response of LNCaP cells to the MEK inhibitor: conferring resistance to this MEK inhibitor
[3]
  expression of the 11 genes (qRT-PCR): less consistency in the suppression

## COc1cccc2c1C(=O)c1c(O)c3c(c(O)c1C2=O)C[C@@](O)(C(=O)CO)C[C@@H]3O[C@H]1C[C@H](N)[C@H](O)[C@H](C)O1 [doxorubicin]
[4]
  expression of the 11 genes in PDX tumors after treatment (qRT-PCR): significantly downregulated

## CC(=O)O[C@H]1CC[C@@]2(C)C(=CC[C@@H]3[C@@H]2CC[C@]2(C)C(c4cccnc4)=CC[C@@H]32)C1 [abiraterone acetate]
[7]
  overall survival: extend overall survival significantly
